According to ChEMBL document CHEMBL5370605, “Discovery of Novel Fedratinib-Based HDAC/JAK/BRD4 Triple Inhibitors with Remarkable Antitumor Activity against Triple Negative Breast Cancer” (J Med Chem, 2023):

Key:
[1] = target: Tyrosine-protein kinase JAK2 (Homo sapiens, UniProt O60674); test: Inhibition of JAK2 (unknown origin) incubated for 40 mins in presence of ATP by Kinase-glo luminescent assay
[2] = target: T1, Receptor-type tyrosine-protein kinase FLT3 (Homo sapiens, UniProt P36888); test: Inhibition of FLT3 (unknown origin) incubated for 40 mins in presence of ATP by Kinase-glo luminescent assay
T1 sequence (P36888 whole entry): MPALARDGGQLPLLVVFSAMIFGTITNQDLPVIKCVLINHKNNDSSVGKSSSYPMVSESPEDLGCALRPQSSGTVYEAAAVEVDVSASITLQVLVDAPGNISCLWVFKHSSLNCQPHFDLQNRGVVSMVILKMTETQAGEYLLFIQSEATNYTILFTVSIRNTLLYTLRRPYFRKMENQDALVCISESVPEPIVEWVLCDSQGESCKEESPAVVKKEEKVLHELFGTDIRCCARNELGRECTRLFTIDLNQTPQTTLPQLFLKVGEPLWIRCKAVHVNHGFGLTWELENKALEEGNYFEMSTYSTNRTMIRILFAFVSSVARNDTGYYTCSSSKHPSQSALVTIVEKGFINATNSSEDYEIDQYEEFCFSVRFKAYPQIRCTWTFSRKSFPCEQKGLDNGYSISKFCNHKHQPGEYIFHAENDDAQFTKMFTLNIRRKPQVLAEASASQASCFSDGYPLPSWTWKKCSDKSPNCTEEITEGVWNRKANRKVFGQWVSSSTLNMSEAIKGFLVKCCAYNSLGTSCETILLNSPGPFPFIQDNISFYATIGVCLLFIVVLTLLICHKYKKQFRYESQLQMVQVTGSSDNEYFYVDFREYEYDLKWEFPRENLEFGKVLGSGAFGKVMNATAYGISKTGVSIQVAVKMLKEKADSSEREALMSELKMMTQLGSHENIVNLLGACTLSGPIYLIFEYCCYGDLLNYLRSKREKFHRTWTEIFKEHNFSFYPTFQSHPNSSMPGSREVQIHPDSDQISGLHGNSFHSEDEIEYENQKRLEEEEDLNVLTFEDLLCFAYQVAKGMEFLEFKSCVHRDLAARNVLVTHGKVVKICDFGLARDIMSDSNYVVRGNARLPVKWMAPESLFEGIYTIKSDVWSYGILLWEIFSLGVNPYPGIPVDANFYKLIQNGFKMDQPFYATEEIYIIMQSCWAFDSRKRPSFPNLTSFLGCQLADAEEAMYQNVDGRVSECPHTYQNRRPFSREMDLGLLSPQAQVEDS

[3] = AUC (0 to t) in ICR (CD-1) mouse at 50 mg/kg, ip measured for 24 hrs by LC-MS/MS analysis; format: ADME, organism-based; design: dose 50 mg/kg, time 24 hrs, route ip; conditions: in vivo
[4] = AUC (0 to t) in ICR (CD-1) mouse at 10 mg/kg, iv measured for 24 hrs by LC-MS/MS analysis; format: ADME, organism-based; design: dose 10 mg/kg, time 24 hrs, route iv; conditions: in vivo
GES1 = test: Cytotoxicity against human GES1 cells at 1 uM incubated for 48 hrs by MTT assay; format: toxicity, cell-based; conditions: ges1, 48 h
[5] = Volume of distribution at steady state in ICR (CD-1) mouse at 10 mg/kg, iv measured for 24 hrs by LC-MS/MS analysis; format: ADME, organism-based; conditions: in vivo
[6] = Toxicity in athymic BALB/c nude mouse xenografted with human MDA-MB-231 cells assessed as reduction in body weight at 25 to 50 mg/kg/day, ip administered for 28 consecutive days; format: organism-based; conditions: in vivo, 672 h, dose 25-50 mg/kg/day, time 28 day
[7] = Half life in ICR (CD-1) mouse at 10 mg/kg, iv measured for 24 hrs by LC-MS/MS analysis; format: ADME, organism-based; conditions: in vivo
[8] = MRT (0 to t) in ICR (CD-1) mouse at 10 mg/kg, iv measured for 24 hrs by LC-MS/MS analysis; format: ADME, organism-based; conditions: in vivo
[9] = target: T2, Protein deacetylase HDAC6 (Homo sapiens, UniProt Q9UBN7); test: Inhibition of HDAC6 (unknown origin) using Boc-Lys(Ac)-AMC as substrate incubated for 30 mins by fluorescence based analysis
T2 sequence (Q9UBN7 whole entry): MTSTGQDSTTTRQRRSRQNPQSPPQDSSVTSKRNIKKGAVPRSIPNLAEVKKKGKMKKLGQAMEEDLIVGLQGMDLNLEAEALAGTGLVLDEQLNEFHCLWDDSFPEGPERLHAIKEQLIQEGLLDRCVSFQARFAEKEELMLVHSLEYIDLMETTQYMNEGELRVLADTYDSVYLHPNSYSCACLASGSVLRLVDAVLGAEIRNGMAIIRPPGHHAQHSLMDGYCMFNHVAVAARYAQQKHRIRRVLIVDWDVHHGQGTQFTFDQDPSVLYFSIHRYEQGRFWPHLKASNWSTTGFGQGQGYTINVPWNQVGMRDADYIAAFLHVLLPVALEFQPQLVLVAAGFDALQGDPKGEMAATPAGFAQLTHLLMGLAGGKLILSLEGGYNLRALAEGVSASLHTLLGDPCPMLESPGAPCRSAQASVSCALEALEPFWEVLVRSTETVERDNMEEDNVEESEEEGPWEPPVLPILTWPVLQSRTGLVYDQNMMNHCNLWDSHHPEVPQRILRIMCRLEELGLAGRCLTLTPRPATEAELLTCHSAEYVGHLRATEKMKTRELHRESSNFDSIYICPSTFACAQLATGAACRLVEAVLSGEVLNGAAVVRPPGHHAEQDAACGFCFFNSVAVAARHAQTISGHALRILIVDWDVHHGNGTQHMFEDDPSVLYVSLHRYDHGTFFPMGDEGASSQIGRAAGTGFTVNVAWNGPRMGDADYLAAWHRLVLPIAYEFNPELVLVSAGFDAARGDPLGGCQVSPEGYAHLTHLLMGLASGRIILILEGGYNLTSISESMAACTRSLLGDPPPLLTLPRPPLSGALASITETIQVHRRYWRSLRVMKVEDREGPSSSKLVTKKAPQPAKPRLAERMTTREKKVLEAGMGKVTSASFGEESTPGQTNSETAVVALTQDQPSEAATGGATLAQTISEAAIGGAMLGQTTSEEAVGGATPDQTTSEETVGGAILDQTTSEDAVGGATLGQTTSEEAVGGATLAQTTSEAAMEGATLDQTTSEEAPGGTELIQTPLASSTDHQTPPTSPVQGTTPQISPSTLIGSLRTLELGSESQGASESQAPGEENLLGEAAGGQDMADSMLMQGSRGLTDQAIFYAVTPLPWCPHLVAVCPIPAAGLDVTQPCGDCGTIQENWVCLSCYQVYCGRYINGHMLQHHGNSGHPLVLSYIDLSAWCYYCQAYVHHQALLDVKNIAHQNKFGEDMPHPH

Histone deacetylase 4 = Histone deacetylase 4 (Homo sapiens, UniProt P56524); test: Inhibition of HDAC4 (unknown origin) using Boc-Lys-(trifluoroacetyl)-AMC as substrate incubated for 30 mins by fluorescence based analysis
[10] = target: Non-receptor tyrosine-protein kinase TYK2 (Homo sapiens, UniProt P29597); test: Inhibition of TYK2 (unknown origin) incubated for 40 mins in presence of ATP by Kinase-glo luminescent assay
Chain of Non-receptor tyrosine-protein kinase TYK2 (P29597 whole entry): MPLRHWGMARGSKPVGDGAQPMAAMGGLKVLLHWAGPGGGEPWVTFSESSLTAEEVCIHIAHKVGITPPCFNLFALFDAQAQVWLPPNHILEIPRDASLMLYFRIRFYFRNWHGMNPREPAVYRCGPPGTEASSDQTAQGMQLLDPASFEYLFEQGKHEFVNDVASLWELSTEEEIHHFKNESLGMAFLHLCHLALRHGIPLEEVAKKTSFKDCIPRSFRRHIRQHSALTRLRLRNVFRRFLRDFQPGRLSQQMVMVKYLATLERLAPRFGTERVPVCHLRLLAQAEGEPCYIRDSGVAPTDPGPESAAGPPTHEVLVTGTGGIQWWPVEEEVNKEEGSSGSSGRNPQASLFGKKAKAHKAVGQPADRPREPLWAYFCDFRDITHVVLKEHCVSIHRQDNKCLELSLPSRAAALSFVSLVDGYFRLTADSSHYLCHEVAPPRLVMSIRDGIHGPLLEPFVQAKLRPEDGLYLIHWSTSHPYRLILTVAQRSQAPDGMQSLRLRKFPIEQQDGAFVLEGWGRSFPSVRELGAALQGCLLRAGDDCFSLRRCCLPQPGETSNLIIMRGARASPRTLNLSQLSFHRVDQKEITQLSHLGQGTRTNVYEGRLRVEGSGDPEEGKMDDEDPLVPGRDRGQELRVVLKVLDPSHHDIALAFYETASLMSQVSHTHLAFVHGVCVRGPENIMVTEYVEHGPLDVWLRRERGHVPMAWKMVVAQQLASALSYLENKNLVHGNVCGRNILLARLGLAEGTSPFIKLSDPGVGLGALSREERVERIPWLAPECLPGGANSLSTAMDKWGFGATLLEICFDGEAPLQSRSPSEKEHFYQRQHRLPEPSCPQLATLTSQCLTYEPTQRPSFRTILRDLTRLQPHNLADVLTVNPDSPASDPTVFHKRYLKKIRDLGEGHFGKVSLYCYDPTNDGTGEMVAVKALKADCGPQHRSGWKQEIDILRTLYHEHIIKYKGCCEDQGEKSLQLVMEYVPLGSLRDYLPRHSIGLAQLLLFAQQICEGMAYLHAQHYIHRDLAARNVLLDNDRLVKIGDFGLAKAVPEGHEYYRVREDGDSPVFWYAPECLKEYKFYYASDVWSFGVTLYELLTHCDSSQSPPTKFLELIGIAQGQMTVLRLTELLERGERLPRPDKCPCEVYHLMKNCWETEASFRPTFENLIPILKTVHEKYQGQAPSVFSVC

Chain of Tyrosine-protein kinase JAK2 (O60674 whole entry): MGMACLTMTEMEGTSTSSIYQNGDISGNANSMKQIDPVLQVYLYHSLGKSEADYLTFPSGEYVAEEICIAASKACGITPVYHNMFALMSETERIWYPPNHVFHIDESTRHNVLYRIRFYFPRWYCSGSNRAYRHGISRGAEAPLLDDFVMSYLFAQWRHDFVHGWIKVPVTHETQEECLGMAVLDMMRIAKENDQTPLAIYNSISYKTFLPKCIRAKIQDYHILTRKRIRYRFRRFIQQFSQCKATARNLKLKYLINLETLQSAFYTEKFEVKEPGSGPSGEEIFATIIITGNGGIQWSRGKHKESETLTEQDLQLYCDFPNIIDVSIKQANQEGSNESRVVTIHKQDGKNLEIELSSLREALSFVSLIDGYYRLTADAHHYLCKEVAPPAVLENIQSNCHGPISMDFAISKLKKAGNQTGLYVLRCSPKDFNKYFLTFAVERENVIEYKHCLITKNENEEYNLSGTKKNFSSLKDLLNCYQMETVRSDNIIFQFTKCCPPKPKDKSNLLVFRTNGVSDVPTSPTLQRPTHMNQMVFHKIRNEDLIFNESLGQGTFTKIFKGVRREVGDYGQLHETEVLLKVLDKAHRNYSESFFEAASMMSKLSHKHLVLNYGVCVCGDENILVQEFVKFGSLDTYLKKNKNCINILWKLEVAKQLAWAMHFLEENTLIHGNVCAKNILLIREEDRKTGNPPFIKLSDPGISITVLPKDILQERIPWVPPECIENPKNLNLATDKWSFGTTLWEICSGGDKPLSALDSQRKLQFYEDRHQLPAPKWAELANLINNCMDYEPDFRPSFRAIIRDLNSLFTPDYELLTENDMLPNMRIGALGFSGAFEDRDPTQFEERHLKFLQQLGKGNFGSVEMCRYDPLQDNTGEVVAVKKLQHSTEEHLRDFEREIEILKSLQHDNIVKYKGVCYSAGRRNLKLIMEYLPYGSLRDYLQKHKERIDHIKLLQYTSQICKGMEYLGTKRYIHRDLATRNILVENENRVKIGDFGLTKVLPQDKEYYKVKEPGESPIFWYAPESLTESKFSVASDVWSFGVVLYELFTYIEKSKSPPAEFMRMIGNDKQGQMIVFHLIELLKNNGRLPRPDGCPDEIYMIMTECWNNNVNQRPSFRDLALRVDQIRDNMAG
Chain of Histone deacetylase 4 (P56524 whole entry): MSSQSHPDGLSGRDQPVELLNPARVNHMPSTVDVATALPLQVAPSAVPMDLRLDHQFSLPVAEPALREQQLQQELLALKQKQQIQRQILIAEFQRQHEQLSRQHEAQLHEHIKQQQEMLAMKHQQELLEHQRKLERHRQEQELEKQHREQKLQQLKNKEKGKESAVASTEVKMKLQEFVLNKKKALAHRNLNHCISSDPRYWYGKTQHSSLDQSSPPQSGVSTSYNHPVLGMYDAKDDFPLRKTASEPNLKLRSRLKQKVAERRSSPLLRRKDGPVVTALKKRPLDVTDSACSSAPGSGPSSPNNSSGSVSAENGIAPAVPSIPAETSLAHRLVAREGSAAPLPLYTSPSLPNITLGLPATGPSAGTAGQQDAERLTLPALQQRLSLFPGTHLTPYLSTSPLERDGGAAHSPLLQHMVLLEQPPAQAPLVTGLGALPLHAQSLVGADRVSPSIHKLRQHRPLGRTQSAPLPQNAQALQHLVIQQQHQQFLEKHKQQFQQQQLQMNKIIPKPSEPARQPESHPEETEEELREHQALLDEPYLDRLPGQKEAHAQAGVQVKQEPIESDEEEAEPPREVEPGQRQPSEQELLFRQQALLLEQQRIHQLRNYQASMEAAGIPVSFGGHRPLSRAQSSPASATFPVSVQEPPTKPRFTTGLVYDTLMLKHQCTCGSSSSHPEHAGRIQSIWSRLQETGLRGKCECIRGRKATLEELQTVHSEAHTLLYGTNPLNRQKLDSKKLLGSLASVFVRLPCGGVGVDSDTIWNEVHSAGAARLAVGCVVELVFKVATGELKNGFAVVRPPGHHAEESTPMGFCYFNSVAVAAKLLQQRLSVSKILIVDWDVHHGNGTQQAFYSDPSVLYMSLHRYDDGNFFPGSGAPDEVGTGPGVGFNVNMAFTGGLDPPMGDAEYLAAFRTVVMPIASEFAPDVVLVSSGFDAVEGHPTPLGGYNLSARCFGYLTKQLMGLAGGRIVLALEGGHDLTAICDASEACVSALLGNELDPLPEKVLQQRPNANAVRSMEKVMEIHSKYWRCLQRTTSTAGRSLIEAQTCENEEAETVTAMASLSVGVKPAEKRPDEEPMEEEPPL

For `Cc1cnc(Nc2ccc(OCCN3CCCC3)cc2)nc1Nc1ccc(C(=O)NO)cc1`, which IC50 [1] is on record?
Its IC50 is 1.8 nM.

And the IC50 [2]?
Its IC50 is 10.9 nM.

And the AUC(0-t) at 24 h [3]?
The AUC(0-t) at 24 h was 14800 ng·h/mL.

What about the AUCt [4] of the same compound?
The AUCt was 1951 ng·h/mL.

What about the Activity (GES1) of the same compound?
The Activity was “Non-Toxic”.

What about the Vdss [5] of the same compound?
The Vdss was 8.84 L/kg.

And the Activity [6]?
The Activity was “Non-Toxic”.

And the t1/2 [7]?
The t1/2 was 1.49 h.

What about the “MRT(t)” value [8] of the same compound?
The value was 1.66 h.

What about the IC50 [9] of the same compound?
The IC50 was 270 nM.

What about the IC50 (Histone deacetylase 4) of the same compound?
The IC50 was over 5 µM.

And the IC50 [10]?
The IC50 was 99 nM.
